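Each compound was tested at five concentrations against cells in 96-well plates for 48 hours. GI50 is the concentration that inhibits growth by half. Definition used: TGI = concentration required for complete inhibition of growth.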

This note sets out measurements from PubChem BioAssay (NCI).

Common to all, as to test: growth of human tumour cells (NCI), 48 h
Assay [1] relates to UACC-257 melanoma.
The subject of assay [2] is NCI/ADR-RES ovarian.
Assay [3] deals with SK-MEL-28 melanoma.
Assay [4] deals with OVCAR-4 ovarian.
The subject of assay [5] is COLO 205 colon.
Assay [6] has as its system HL-60(TB) leukemia.
In assay [7] the test system is SF-295 CNS.
The test system of assay [8] is UO-31 renal.
The test system of assay [9] is NCI-H23 lung.
Assay [10] concerns 786-0 renal.

Take `CCOc1cc2ncc(C#N)c(Nc3ccc(OCc4cccc(F)c4)c(Cl)c3)c2cc1NC(=O)CC1CCSS1` (centres undefined): the GI50 in assay [1] was 24500 nM; in assay [2], above 25000 nM; in assay [3], 1200 nM; in [4] it was 539 nM; in [5], 2390 nM; in [6] it was 3480 nM. In addition, the GI50 is above 25 µM in assay [7], 1040 nM in [8], 2080 nM in [9] and above 13800 nM in assay [10]. Besides, the TGI was above 25 µM in [1]; above 25 µM in assay [2]; above 19.3 µM in assay [3]; 1.36 µM in assay [4]; above 25 µM in [5]; above 25 µM in [6]. Besides, the TGI in assay [7], in [8], in [9] and in assay [10] was above 25 µM in each case.
Turning to `N#Cc1c(-c2nc3ccccc3s2)c(=O)oc2cc(O)ccc12`, the TGI is above 100 µM in assay [1]; above 100 µM in [2]; above 100 µM in assay [3]; above 100 µM in assay [4]; 30.8 µM in assay [5]; 66.5 µM in assay [6]. The TGI in assay [7] was above 100 µM; in [8], 74.9 µM; in assay [9], above 100 µM; in assay [10] it was above 100 µM.
In the case of `C=C1C(=O)O[C@H]2[C@H]1CC/C(COC(=O)c1cc3cc(F)ccc3[nH]1)=C\CC[C@@]1(C)O[C@@H]21`, the GI50 in assay [1] is 2280 nM; in assay [2], 1980 nM; in assay [3], 1790 nM; in assay [4], 1670 nM; in assay [5], 1640 nM; in assay [6] it was 2070 nM. The GI50 in [7] is 7.1 µM; in [8], 1200 nM; in [9] it was 1900 nM; in assay [10], 1780 nM. The TGI came to 4.26 µM in [1]; 5.39 µM in [2]; 3.69 µM in assay [3]; 3.92 µM in [4]; 3.37 µM in assay [5]; 9.27 µM in assay [6]. Moreover, the TGI in assay [7] stood at 21.6 µM; in assay [8] it was 2.54 µM; in assay [9], 4.26 µM; in assay [10] it was 3.75 µM.
Take `Cc1c2c(nn1-c1ccc(S(=O)(=O)NC(=S)Nc3ccccc3)cc1)-c1ccccc1CC2`: the GI50 in assay [1], in assay [2], in assay [3], in assay [4], in [5] and in assay [6] was above 50000 nM throughout. The GI50 in assay [7] was above 50 µM; in assay [8] it was above 50000 nM; in assay [9], 46800 nM; in assay [10], 26400 nM. Besides, the TGI in [1], in [2], in [3], in [4], in [5] and in [6] was above 50 µM throughout. For the same compound, the TGI in assay [7], in assay [8], in assay [9] and in assay [10] was above 50 µM each time.
As to `CNC(=O)c1cc(OC2CCC(NC(=O)Nc3ccc(Cl)c(C(F)(F)F)c3)CC2)ccn1` (centres undefined), the GI50 in assay [1] is 5680 nM; in [2] it was 5670 nM; in assay [3], 11400 nM; in assay [4], 4530 nM; in [5], 8810 nM; in assay [6], 11700 nM. Besides, the GI50 in [7] is 4.95 µM; in assay [8], 7090 nM; in assay [9], 4470 nM; in [10] it was 8340 nM. In addition, the TGI was 20.3 µM in assay [1]; 44.3 µM in [2]; 24.6 µM in assay [3]; 49.6 µM in [4]; 22.3 µM in assay [5]; 50.2 µM in assay [6]. In addition, the TGI in [7] was found to be 26.6 µM; in assay [8], 21.7 µM; in assay [9] it was 20.4 µM; in assay [10], 25 µM.
As to `Cc1ccc(CNc2c3ccccc3nc3ccccc23)cc1`, the GI50 was 2170 nM in [1]; 1740 nM in assay [2]; 1840 nM in [3]; 1540 nM in [4]; 1570 nM in assay [5]; 2200 nM in [6]. For the same compound, the GI50 in assay [7] is 2.53 µM; in [8], 1120 nM; in assay [9] it was 1590 nM; in assay [10], 1950 nM. In addition, the TGI turned out to be 5.06 µM in assay [1]; 5.35 µM in assay [2]; 4.16 µM in assay [3]; 5.36 µM in [4]; 3.59 µM in assay [5]; 5.07 µM in assay [6]. Further, the TGI was found to be 8.87 µM in [7], 3.17 µM in assay [8], 4.04 µM in [9] and 4.26 µM in assay [10].
Consider `COc1ccc2nc(N/N=C(\C)c3ccccn3)cc(C)c2c1`, for which the GI50 in assay [1] is 276 nM; in [2], 274 nM; in [3], 445 nM; in [4], 156 nM; in assay [5], 24 nM; in assay [6] it was 384 nM. In addition, the GI50 in [7] was 0.0487 µM; in assay [8], 161 nM; in assay [9] it was 440 nM; in [10] it was 284 nM. Moreover, the TGI in [1] worked out at 1.09 µM; in [3] it was 1.68 µM; in assay [4], 2.57 µM; in assay [5], 1.15 µM; in assay [6] it was 7.01 µM; in assay [7], 0.391 µM. Further, the figures for the TGI in [8], in [9] and in [10] were 1.08 µM, 4.46 µM and 1.21 µM, respectively.
